The subject of one assay is MDA-MB-231 cells. The assay is described as follows: Fluorescence microscopy, subcellular localization of iniparib-biotin targets. The class given is cell-based, human. Particulars: MDA-MB-231, as early as 30 min following compound addition. How it is done: MDA-MB-231 cells were platted on polylysine D coated thin glass bottom microscope chambers (Ibidi). […] For subcellular localization experiments mitochondria were stained with 100 nM Mitotracker Red CMX (Molecular probes) added for 10 min. This stain was performed before fixation (Paraformaldehyde 3.7% in PBS pH 7.4). Biotin was developed, after Triton X100 (0.3% in PBS, 15 min) permeabilization and saturation (1% BSA+1% gelatin in PBS: saturation buffer), with Alexa-488 streptavidin (Molecular Probes) conjugate (1 μg/ml in saturation buffer). Nuclei were stained with Hoechst (Molecular Probes) and samples mounted in antifading solution (Ibidi).
Cells were imaged with a PLAN NeoFluar 40× (NA 1.3) or 100×, (NA 1.46) oil objectives on a LSM510 (Zeiss) confocal microscope. Laser lines, filters and dichroic mirrors were selected for maximal separation of the green (Ex./Em. 488/530 nm) and the red fluorescence (Ex./Em. 543/LP 585 nm). Nuclei were observed (Ex./Em. 405/460 nm). For co-localization stacks of images separated by 400 nm along z-axis were acquired. Post-capture processing was done using LSM510 software, stacks of confocal images were deconvoluted using the ImageJ software.

Assay [1] relates to Trx1/2 in MDA-MB-231 cells. Briefly: Trx redox western blot analysis. Format: cell-based, human. Particulars: GSH-depleted MDA-MB-231, 100 μM, 6h, increases further at 18h. On the procedure:
Quantification is obtained directly from the relative intensities of the different bands. Two forms of the redox Western blot have been developed, separating on the basis of differing charge (thiols are modified with a charged alkylating reagent) or mass (thiols are modified with a high-mass alkylating reagent). Redox analysis of the mitochondrial compartment is performed using a redox Western blot analysis of thioredoxin-2 (Trx2). Trx2 is exclusively found in mitochondria, so an analysis of a cell or tissue extract provides specific information on redox in the mitochondria without fractionation. Analysis is performed following derivatization with AMS. Trx2 contains two cysteine residues, and the addition of two molecules of AMS increases the mass by approximately 1000 Da. Oxidized and AMS derivatized forms are separated by non-reducing SDS polyacrylamide gel electrophoresis and detected by immunoblotting.
A general note: In western blotting, separated proteins are transferred to a membrane and probed.

The structures appear in SMILES notation.

Results on two compounds are retold here after patent US20200113852A1, “METHODS OF PATIENT SELECTION AND TREATING TRXR- OR PRDX-OVEREXPRESSED CANCERS” (TRIACT THERAPEUTICS, INC., priority 2017, published 2020).

For `O=C(CCCC[C@@H]1SC[C@@H]2NC(=O)N[C@@H]21)NCCNC(=O)c1ccc(I)c([N+](=O)[O-])c1` [Iniparib-biotin, 4-iodo-3-nitro-N-(2-(5-((3 aS,4S,6aR)-2-oxohexahydro-1H-thieno[3,4-d]imidazol-4-yl)pentanamido)ethyl)benzamide], in the assay on MDA-MB-231 cells, the “protein modification, subcellular localization” value is “covalently modified cytosolic and mitochondrial proteins were detected”.
Take `NC(=O)c1ccc(I)c([N+](=O)[O-])c1` [Iniparib, 4-iodo-3-nitrobenzamide]: in assay [1], the Trx oxidation status entry is recorded as “accumulation of oxidized Trx”.
